Measured values as given in patent US20050113283A1, “Methods of treating conditions associated with an EDG-4 receptor” (priority 2002, published 2005).
Entries after “also recorded” stand apart in the source; their conditions may differ.

Key:
Edg-8 = target: T1, Edg-8 (Homo sapiens, UniProt Q9H228); test: Calcium mobilization assay (FLIPR), HTC cells expressing Edg 8; assay type: cell-based; conditions: for EC50: agonist
T1 construct: expressed in transfected cells; host or cells: HTC rat hepatoma cells (from the earlier reading)

Edg-1 = target: T2, Edg-1 (Homo sapiens, UniProt P21453); test: Calcium mobilization assay (FLIPR), HTC cells expressing Edg 1; assay type: cell-based; conditions: for EC50: agonist
T2 construct: expressed in transfected cells; host or cells: HTC rat hepatoma cells (from the earlier reading)

Edg-2 = target: T3, Edg-2 (Homo sapiens, UniProt Q92633); test: Calcium mobilization assay (FLIPR), HTC cells expressing Edg 2; assay type: cell-based; conditions: for EC50: agonist
T3 construct: expressed in transfected cells; host or cells: HTC rat hepatoma cells (from the earlier reading)

Edg-3 = target: T4, Edg-3 (Homo sapiens, UniProt Q99500); test: Calcium mobilization assay (FLIPR), HTC cells expressing Edg 3; assay type: cell-based; conditions: for EC50: agonist
T4 construct: expressed in transfected cells; host or cells: HTC rat hepatoma cells (from the earlier reading)

Edg-7 = target: T5, Edg-7 (Homo sapiens, UniProt Q9UBY5); test: Calcium mobilization assay (FLIPR), HTC cells expressing Edg 7; assay type: cell-based; conditions: calcium mobilization; for EC50: agonist
T5 construct: expressed in transfected cells; host or cells: HTC rat hepatoma cells (from the earlier reading)
T5 sequence (Q9UBY5 1-353): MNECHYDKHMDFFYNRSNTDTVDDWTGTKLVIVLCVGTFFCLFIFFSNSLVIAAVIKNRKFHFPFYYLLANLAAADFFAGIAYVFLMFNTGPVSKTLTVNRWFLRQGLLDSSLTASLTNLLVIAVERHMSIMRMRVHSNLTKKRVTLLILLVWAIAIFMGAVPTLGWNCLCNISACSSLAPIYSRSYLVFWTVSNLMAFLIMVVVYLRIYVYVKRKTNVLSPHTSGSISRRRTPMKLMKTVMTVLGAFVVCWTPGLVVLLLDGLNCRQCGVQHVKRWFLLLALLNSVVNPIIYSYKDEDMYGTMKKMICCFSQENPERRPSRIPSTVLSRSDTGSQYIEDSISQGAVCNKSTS

Edg-6 = target: T6, Edg-6 (Homo sapiens, UniProt O95977); test: Calcium mobilization assay (FLIPR), HTC cells expressing Edg 6; assay type: cell-based; conditions: for EC50: agonist
T6 construct: expressed in transfected cells; host or cells: HTC rat hepatoma cells (from the earlier reading)
T6 sequence (O95977 1-384): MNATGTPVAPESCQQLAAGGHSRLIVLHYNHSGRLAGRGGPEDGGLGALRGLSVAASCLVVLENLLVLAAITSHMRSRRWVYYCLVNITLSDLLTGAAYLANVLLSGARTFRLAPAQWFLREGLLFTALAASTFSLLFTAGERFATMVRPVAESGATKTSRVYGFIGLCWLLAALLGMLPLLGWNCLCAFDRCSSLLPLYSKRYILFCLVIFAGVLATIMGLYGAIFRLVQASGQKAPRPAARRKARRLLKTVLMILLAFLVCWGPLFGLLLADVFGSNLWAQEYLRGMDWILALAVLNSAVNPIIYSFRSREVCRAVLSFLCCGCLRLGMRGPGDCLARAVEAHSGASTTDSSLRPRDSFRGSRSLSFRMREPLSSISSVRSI

human Edg-4 receptor [1] = target: T7, human Edg-4 receptor (Homo sapiens, UniProt Q9HBW0); test: Calcium mobilization assay (FLIPR), HTC rat hepatoma cells transfected with human Edg-4; assay type: cell-based; conditions: for EC50: agonist; for inhibition of LPA-induced calcium mobilization, human Edg-4: clonal HTC cell line, FIG. 11
T7 construct: IC50 Edg-4; other: agonist, calcium mobilization; potency relative to compound 101; calcium response (agonist)
Source text: (§1) LPA receptors such as Edg-4, couple to calcium effector pathways, and result in increases in intracellular calcium following receptor activation (An et al., Molecular Pharmacology, 54:881-888, 1998, incorporated herein by reference). This biological response lends itself to a very efficient, high-throughput screen using a Fluorescence Imaging Plate Reader (FLIPR; Molecular Devices, Sunnyvale, Calif.). The FLIPR system is a real-time, cell-based assay system with continuous fluorescence detection using a cooled CCD camera. The FLIPR system was used to developing an Edg-4 receptor screen. Rat hepatoma cells stably expressing Edg-4 receptor were plated on 384-well plates and loaded with a calcium dye loading kit (Molecular Devices, Sunnyvale, Calif.) for 1 hour at room temperature. Cells were then placed on the FLIPR^354 (Molecular Devices, Sunnyvale, Calif.) and excited by an argon laser at 488 nm. The data for the entire 384-well plate was updated every second. An integrated robotic pipettor allowed for simultaneous compound addition into each individual well in the plate.

human Edg-4 receptor [2] = test: as above; assay type: cell-based; conditions: Edg-4 relative to other Edg receptors; for Fold Selectivity for Edg-4 (EC50): agonists
Source text: as §1

Edg-5 = target: T8, Edg-5 (Homo sapiens, UniProt O95136); test: Calcium mobilization assay (FLIPR), HTC cells expressing Edg 5; assay type: cell-based; conditions: for EC50: agonist
T8 construct: expressed in transfected cells; host or cells: HTC rat hepatoma cells (from the earlier reading)

[3] = Calcium mobilization assay, Null; assay type: cell-based; conditions: agonist
Source text: as §1

mouse Edg-4 receptor = target: T9, mouse Edg-4 receptor (Mus musculus, UniProt Q9JL06); test: LPA induced calcium mobilization, HTC cells transfected with pooled mouse Edg-4 clones; assay type: cell-based; conditions: pooled HTC population, FIG. 13
T9 construct: expressed in transfected cells; host or cells: HTC rat hepatoma cells, pooled population
Source text: as §1

rat Edg-4 receptor = test: LPA induced calcium mobilization, HTC cells transfected with pooled rat Edg-4 clones; assay type: cell-based; conditions: pooled HTC population, FIG. 12
Source text: as §1

HUVEC cells = test: Migration assay, SIP induced chemotaxis; assay type: cell-based, human; conditions: FIG. 10
Description: (§2) Cells were plated in a 24 well format using Fluoroblok filter insert plates ([…]) or Fluoroblok matrigel coated filter insert plates (Becton Dickinson, San Diego, Calif.). The assay was a modified Boyden Chamber assay in which a cell suspension (1 ×10^5 cells/ml) was prepared in serum free medium and added to the top chamber. LPA or SIP (doses ranged from 0.1-10 μM in serum free medium) was added to the bottom chamber. Following a 20-24 hour incubation period, the number of cells migrating or invading into the lower chamber was quantitated by transferring the filter insert into a fresh 24-well plate containing 4 μg/ml calcein AM (Molecular Probes, Sunnyvale, Calif.) in Hank's Balanced Salt Solution and staining for one hour.
(§3) Detection was via fluorescent readout at 450 nm excitation/530 nm emission using a fluorimeter. The level of fluorescence correlated with cell number.

[4] = system: CaOV3 human ovarian cancer cells; test: Migration assay, LPA stimulated chemotaxis; assay type: cell-based; conditions: CaOV3, FIG. 9
Description: as §2, §3
For most cells types, no further manipulation was required. For CaOV3 human ovarian cancer cells, however, it was necessary that the cells be serum starved overnight prior to preparing the cell suspension. In addition, the filter inserts were coated with a solution of 1 mg/ml rat-tail Collagen I (BD, SanDiego, Calif.).

T7 sequence (Q9HBW0 1-340 limits assumed): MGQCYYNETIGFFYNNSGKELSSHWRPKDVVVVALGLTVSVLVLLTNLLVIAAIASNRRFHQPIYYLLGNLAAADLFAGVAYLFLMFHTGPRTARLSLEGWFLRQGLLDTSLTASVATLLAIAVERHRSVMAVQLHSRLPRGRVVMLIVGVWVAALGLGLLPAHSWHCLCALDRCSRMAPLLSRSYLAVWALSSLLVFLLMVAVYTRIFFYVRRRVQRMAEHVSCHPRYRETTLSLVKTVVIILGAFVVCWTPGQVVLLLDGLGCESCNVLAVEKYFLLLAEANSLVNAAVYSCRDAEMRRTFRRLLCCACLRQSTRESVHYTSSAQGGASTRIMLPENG
T2 sequence (P21453 whole entry): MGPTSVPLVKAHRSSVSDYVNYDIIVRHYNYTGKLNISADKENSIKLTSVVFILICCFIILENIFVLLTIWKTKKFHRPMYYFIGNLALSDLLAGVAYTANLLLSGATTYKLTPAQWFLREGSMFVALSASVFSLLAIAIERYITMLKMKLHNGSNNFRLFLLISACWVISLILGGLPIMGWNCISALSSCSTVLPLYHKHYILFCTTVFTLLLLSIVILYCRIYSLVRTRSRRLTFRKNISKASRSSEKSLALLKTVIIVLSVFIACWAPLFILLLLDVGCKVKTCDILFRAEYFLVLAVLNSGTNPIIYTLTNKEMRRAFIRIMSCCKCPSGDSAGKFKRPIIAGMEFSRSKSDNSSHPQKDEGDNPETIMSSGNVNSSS
T1 sequence (Q9H228 whole entry): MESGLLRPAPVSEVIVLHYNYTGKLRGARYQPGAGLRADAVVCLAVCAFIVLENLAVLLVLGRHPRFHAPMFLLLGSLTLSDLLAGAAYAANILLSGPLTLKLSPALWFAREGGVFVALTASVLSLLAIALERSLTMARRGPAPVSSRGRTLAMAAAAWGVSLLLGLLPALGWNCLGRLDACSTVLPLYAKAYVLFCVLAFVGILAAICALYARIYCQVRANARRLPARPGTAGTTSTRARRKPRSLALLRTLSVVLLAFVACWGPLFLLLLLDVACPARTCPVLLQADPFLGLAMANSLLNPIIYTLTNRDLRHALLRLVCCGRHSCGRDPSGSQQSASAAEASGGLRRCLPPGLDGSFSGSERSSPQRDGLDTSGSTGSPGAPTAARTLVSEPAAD
T4 sequence (Q99500 whole entry): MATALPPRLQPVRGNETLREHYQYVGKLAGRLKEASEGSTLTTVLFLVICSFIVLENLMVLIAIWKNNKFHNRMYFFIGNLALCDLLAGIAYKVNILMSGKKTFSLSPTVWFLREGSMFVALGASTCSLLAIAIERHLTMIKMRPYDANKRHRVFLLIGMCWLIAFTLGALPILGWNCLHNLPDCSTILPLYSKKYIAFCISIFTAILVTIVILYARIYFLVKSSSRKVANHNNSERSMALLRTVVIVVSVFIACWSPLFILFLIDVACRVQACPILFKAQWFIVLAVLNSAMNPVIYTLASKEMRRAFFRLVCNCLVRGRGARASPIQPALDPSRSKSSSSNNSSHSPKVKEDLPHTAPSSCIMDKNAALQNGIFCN
T8 sequence (O95136 whole entry): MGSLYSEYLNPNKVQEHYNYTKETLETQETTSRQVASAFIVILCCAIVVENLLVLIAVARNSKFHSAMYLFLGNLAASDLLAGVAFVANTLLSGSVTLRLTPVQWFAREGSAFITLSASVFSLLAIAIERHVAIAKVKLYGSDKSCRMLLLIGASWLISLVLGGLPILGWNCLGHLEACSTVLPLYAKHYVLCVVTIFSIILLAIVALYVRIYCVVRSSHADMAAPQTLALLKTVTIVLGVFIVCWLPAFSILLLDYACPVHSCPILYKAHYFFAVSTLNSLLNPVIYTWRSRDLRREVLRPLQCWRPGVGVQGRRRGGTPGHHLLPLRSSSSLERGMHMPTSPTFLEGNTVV
T3 sequence (Q92633 whole entry): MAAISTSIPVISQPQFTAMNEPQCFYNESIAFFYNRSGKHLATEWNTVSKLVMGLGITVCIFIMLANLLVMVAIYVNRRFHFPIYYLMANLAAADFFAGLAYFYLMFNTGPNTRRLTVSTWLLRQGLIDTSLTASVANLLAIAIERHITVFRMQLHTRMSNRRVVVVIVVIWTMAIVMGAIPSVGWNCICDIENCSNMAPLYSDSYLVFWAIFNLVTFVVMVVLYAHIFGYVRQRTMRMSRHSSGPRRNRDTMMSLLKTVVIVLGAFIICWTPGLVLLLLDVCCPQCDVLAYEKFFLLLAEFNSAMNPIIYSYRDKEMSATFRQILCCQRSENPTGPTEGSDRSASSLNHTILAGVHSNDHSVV
T9 sequence (Q9JL06 whole entry): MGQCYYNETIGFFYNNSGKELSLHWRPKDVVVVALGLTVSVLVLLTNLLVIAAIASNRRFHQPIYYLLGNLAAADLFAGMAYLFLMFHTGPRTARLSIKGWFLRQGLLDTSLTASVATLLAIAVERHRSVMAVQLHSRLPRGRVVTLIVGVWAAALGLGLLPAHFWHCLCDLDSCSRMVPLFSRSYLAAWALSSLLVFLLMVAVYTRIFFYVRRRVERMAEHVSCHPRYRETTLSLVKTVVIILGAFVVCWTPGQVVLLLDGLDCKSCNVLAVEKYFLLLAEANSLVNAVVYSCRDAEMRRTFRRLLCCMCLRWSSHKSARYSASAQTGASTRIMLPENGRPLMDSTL

Question: What does the source list for FC(F)(F)c1ccc2nnc(-c3c(Cl)cccc3Cl)n2c1 [Compound 131, 3-(2,6-dichlorophenyl)-6-trifluoromethyl-[1,2,4]triazolo [4,3-a]pyridine]?
Answer: EC50 (Edg-8): > 25 µM; EC50 (Edg-1): > 25 µM; EC50 (Edg-2): > 25 µM; EC50 (Edg-3): > 25 µM; EC50 (Edg-7): > 25 µM; EC50 (Edg-6): > 25 µM; EC50 (human Edg-4 receptor [1]; calcium mobilization): 9.9 µM; Fold Selectivity for Edg-4 (EC50) (human Edg-4 receptor [2]): >2.5; EC50 (Edg-5): > 25 µM; EC50 [3]: > 25 µM

Question: What does the source list for FC(F)(F)c1ccc2nnc(-c3cccc(Cl)c3Cl)n2c1 [Compound 129, 3-(2,3-dichlorophenyl)-6-trifluoromethyl[1,2,4]triazolo[4,3-a]pyridine]?
Answer: EC50 (Edg-8): > 25 µM; EC50 (Edg-1): > 25 µM; EC50 (Edg-2): > 25 µM; EC50 (Edg-3): > 25 µM; EC50 (Edg-7): > 25 µM; EC50 (Edg-6): > 25 µM; EC50 (human Edg-4 receptor [1]; calcium mobilization): 5.4 µM; Fold Selectivity for Edg-4 (EC50) (human Edg-4 receptor [2]): >4.6; EC50 (Edg-5): > 25 µM; EC50 [3]: > 25 µM

Question: For COc1cccc(-c2cc(NC(=O)CC(=O)C(F)(F)F)[nH]n2)c1 [Compound 113, 4,4,4-trifluoro-N-[5-(3-methoxy-phenyl)-2H-pyrazol-3-yl]-3-oxo-butyramide], which “inhibition of LPA-induced calcium mobilization, mouse Edg-4” value (mouse Edg-4 receptor) is on record?
Answer: The value was “dose dependent inhibition”.

Question: What about the “inhibition of LPA-induced calcium mobilization, rat Edg-4” value (rat Edg-4 receptor) of the same molecule?
Answer: The value was “dose dependent inhibition”.

Question: And the “inhibition of LPA-induced calcium mobilization, human Edg-4” value (human Edg-4 receptor [1])?
Answer: Its value is “dose dependent inhibition”.

Question: For O=C(CC(=O)C(F)(F)F)Nc1cc(-c2ccc(Cl)c(Cl)c2)n[nH]1 [Compound 103, N-[5-(3,4-dichloro-phenyl)-2H-pyrazol-3-yl]4,4,4-trifluoro-3-oxo-butyramide], which IC50 (Edg-8; inhibition) is on record?
Answer: Its IC50 is over 20 µM.

Question: What about the IC50 (Edg-1; inhibition) of the same molecule?
Answer: Its IC50 is over 20 µM.

Question: What about the IC50 (Edg-2; inhibition) of the same molecule?
Answer: Its IC50 is over 20 µM.

Question: What about the IC50 (Edg-3; inhibition) of the same molecule?
Answer: The IC50 was over 20 µM.

Question: What about the “inhibition of SIP induced chemotaxis” value (HUVEC cells) of the same molecule?
Answer: Its value is “did not inhibit”.

Question: What about the IC50 (Edg-7; inhibition) of the same molecule?
Answer: Its IC50 is over 20 µM.

Question: And the IC50 (Edg-6; inhibition)?
Answer: The IC50 was over 20 µM.

Question: And the IC50 (human Edg-4 receptor [1]; inhibition, calcium mobilization)?
Answer: Its IC50 is 0.32 µM.

Question: What about the “Fold-selectivity for Edg-4 (IC50)” value (human Edg-4 receptor [2]; antagonists) of the same molecule?
Answer: The value was over 62.5.

Question: What about the IC50 (Edg-5; inhibition) of the same molecule?
Answer: The IC50 was over 20 µM.

Question: Which “inhibition of LPA-induced calcium mobilization, mouse Edg-4” value (mouse Edg-4 receptor) does the source give for “N-[5-(3,4-dichloro-phenyl)-2H-pyrazol-3-yl]4,4,4-trifluoro-3-oxo-butyramide [Compound 103]” here?
Answer: Its value is “dose dependent inhibition”.

Question: And the “inhibition of LPA-induced calcium mobilization, rat Edg-4” value (rat Edg-4 receptor)?
Answer: Its value is “dose dependent inhibition”.

Question: And the “inhibition of calcium response elicited by agonist 125” value (human Edg-4 receptor [1]; HTC cells transfected with human Edg-4, FIG. 15)?
Answer: Its value is “inhibited”.

Question: And the “inhibition of LPA-induced calcium mobilization, human Edg-4” value (human Edg-4 receptor [1])?
Answer: Its value is “dose dependent inhibition”.

Question: What about the “potency relative to compound 101” value (human Edg-4 receptor [1]; dose response curve, FIG. 2) of the same molecule?
Answer: The value was 2-3 fold.

Question: What about the “inhibition of LPA stimulated chemotaxis” value [4] of the same molecule?
Answer: The value was “effectively blocked; also recorded: did inhibit”.
